System: C57BL/6J mice injected with AAV (LacZ transgene)
Test: In vivo mouse AAV model: CD8 TEM and lacZ tetramer staining of PBMCs and splenocytes
Settings: chow 100 mg/kg from 15 days prior to AAV, versus AAV group
Method: In-vivo mice experiments. C57BL/6J mice were purchased from Jackson Laboratories. 6-8-week male mice were divided into 3 groups—PBS group, AAV group and AAV+IRAK4 group all groups with 10 mice each. Zimlovisertib IRAK4 inhibitor (Synonyms: PF-06650833) Cat. No.: HY-19836 (MedChemExpress) was mixed with mouse chow Catalog #2016, Teklad Global 16% Protein Rodent Diets https://www.inotivco.com/rodent-natural-ingredient-2016-diets at a dose of 30 mg/kg. AAV+IRAK4 group was fed the chow with Zimlovisertib IRAK4 inhibitor 15 days prior to AAV injection whereas PBS and AAV group were fed with mouse chow Catalog #2016, Teklad Global 16% Protein Rodent Diets https://www.inotivco.com/rodent-natural-ingredient-2016-diets. PBS group mice were injected intramuscularly with 100 ul PBS, AAV group was injected intramuscularly with 1e11 vg per quadricep muscle of both legs, 100 ul volume.
The same experiment design was followed with n=6 mice in each group PBS group, AAV group and AAV+IRAK4 degrader PROTAC IRAK4 degrader-1 Cat. No.: HY-129966 (MedChemExpress) that was mixed with chow at 100 mg/kg and fed to mice 15 days prior to AAV injection. […] AAV capsid used in the study had LacZ transgene. All animal experiments were conducted in accordance with the Institutional Animal Care and Use Committees at Sanofi, Framingham. Submandibular bleeds were performed weekly, and necropsy was performed three weeks post AAV injection.
PBMC isolation and surface staining. 120 ul blood was collected in K2EDTA coated tubes. The blood was mixed with DBPS at 1:1 ration and pipetted into a separate tube containing Ficoll (GE17-5442-02) to ensure no mixing of the blood and Ficoll phases. The mixture was centrifuged at 2000 RPM for 25 minutes at room temperature (9 acceleration and no braking). The buffy coat containing the peripheral blood mononuclear cells (PBMCs) was collected, transferred to a new tube, and centrifuged for five minutes at 400 RCF. PBMCs were washed three times with phosphate buffered saline (PBS) containing 1% fetal bovine serum (FBS) or fetal calf serum (FCS) and counted. The PBMC cells thus obtained were stained with different antibodies to quantify percentage of different immune cell subsets in peripheral blood.
PBMC CD8 TEM and lacZ tetramer staining. The PBMC was isolated from ˜120 μl of mouse blood, and it was transferred to a 96-well U-bottom plate. […]

For Cn1c(=O)n(C2CCC(=O)NC2=O)c2cccc(C#CCOC3CCN(C[C@H]4CC[C@H](n5cc(NC(=O)c6cnn7ccc(N8C[C@H]9C[C@@H]8CO9)nc67)c(C(F)F)n5)CC4)CC3)c21 (some centres unmarked) [KT-474], the “LacZ tetramer positive (transgene LacZ specific CD8 T) cells in PBMCs” value (14 days post AAV injections) was “reduced significantly” and the “LacZ tetramer positive (transgene LacZ specific CD8 T) cells in spleen” value (21 days post AAV injections) was “reduced significantly”.
